Results reported in PMC12287035, “Anticandidal activity of Clinopodium chilense essential oil” (Frontiers in Pharmacology, 2025).
In brackets after ≈: the same amount, converted by molar mass. Like-named read-outs stand apart in the source and are kept apart here.

Columns and labels:
[1] = test system: CCD 841 CoN (colon epithelial cells); assay: Sulforhodamine B (SRB) cell viability assay; assay type: cell-based; conditions: Homo sapiens, 72 h, non-tumorigenic cells
Procedure: (§1) The cytotoxicity of C. chilense EO was evaluated in two non-tumorigenic human cell lines: CCD 841 CoN (colon epithelial cells) and HEK-293T (human embryonic kidney). All tested cell lines were obtained from the AmericanType Culture Collection (Rockville, MD, United States). The different cell lines were maintained as monolayers in a culture medium (HAM-F10 + DMEM, 1:1) supplemented with 10% fetal bovine serum, as well as antibiotics (0.01 mg/mL streptomycin and 0.005 mg/mL penicillin). The cells were incubated at 37 °C in a humidified 5% CO2 atmosphere.
(§2) To determine the effect on cell viability of C. chilense EO, the sulforhodamine B (SRB)assay was used to measure the number of viable cells after each treatment ([Silva et al., 2022]). Cells were seeded in 96-well plates at 3 × 10^3 cells/well in 100 μL of culture medium and treated in triplicate with increasing concentrations of essential oil (0.625–100 μg/mL) for 72 h at 37°C and 5% CO2. The cells which received only the medium containing 0.1% DMSO served as the control group. […] The dye is solubilized with 150 μL/well of 10 mM Tris Base, and the absorbance is then measured at a wavelength of 540 nm in a microplate reader. […]

[2] = test system: HEK-293T (human embryonic kidney); assay: Sulforhodamine B (SRB) cell viability assay; assay type: cell-based; conditions: 72 h, non-tumorigenic cells
Procedure: as §1, §2

[3] = test system: C. albicans (10,935); assay: Broth microdilution antifungal susceptibility (CLSI M27-A3), MIC and MFC; assay type: cell-based, Candida albicans; conditions: for MFC / MIC: Candida albicans, 48 h
Procedure: (§3) The antifungal activity of the EO and its main components was evaluated against reference strains and clinical isolates of Candida. The reference strains C. albicans (ATCC 7978) and C. parapsilosis (ATCC 22019) were used, as well as the clinical isolates C. albicans 10,935, C. dubliniensis 3240, Candida glabrata 10,912, C. guilliermondii 12,204, C. lusitaniae 2305, and Candida tropicalis 9841. The clinical isolates were obtained from patients of the Base Hospital of […], Los Ríos Region, Chile. After identification, the microorganisms were included in the pathogenic fungal collection (Bioassay Laboratory of University of […]íso). They are maintained in Sabouraud Dextrose Broth (SDB) with glycerol at -80°C according to established protocols ([Madrid et al., 2012]). […] Briefly, cultures of all yeast were placed on Sabouraud Dextrose Agar (SDA) and incubated for 24-72 h at temperature 37°C. Colonies of this culture were suspended in sterile 0.85% NaCl and the inoculum was standardized according to the scale of 0.5 McFarland (1-5 × 10^6 CFU/mL). The antifungal assay was conducted in 96-well plates. […] A volume of 100 μL of inoculum suspension was added to each well with the exception of the sterility control where sterile water was added to the well instead. […] Following a 24-48 h incubation at 37°C, the absorbance of the plates was measured at 540 nm using a VERSA Max microplate reader (Molecular Devices, Sunnyvale, CA, United States) for spectrophotometric analysis. […] The lowest concentration with no visible growth was defined as MFC indicating 99.5% death of the original inoculum. All experiments were performed in triplicate and repeated three times for reproducibility.

[4] = test system: C. albicans (ATCC 7978); assay: as above; assay type: cell-based, Candida albicans; conditions: for MFC / MIC: Candida albicans
Procedure: as §3

[5] = test system: C. parapsilosis (ATCC 22019); assay: as above; assay type: cell-based, Candida parapsilosis; conditions: Lodderomyces parapsilosis
Procedure: as §3

[6] = test system: C. guilliermondii (12,204); assay: as above; assay type: cell-based; conditions: Meyerozyma guilliermondii, 48 h
Procedure: as §3

[7] = test system: C. lusitaniae (2305); assay: as above; assay type: cell-based; conditions: for MFC / MIC: Clavispora lusitaniae, 48 h; for MFC/MIC ratio: C. lusitaniae
Procedure: as §3

[8] = test system: C. tropicalis (9841); assay: as above; assay type: cell-based; conditions: Candida tropicalis, 48 h
Procedure: as §3

[9] = test system: C. glabrata (10,912); assay: as above; assay type: cell-based, Candida glabrata; conditions: for MFC / MIC: Nakaseomyces glabratus, 48 h
Procedure: as §3

[10] = test system: Candida spp.; assay: Broth microdilution antifungal susceptibility, summary over all tested strains; assay type: cell-based; conditions: for MIC: Candida, summary over all tested strains
Procedure: as §3

[11] = C. albicans (10,935), clinical isolate, read-out: MFC
[12] = C. albicans (10,935), clinical isolate, read-out: MIC
[13] = ATCC7978, C. albicans (ATCC 7978), 48 h, read-out: MFC
[14] = ATCC7978, C. albicans (ATCC 7978), 48 h, read-out: MIC
[15] = ATCC22019, C. parasilopsis (ATCC 22019), 48 h, read-out: MFC
[16] = ATCC22019, C. parasilopsis (ATCC 22019), 48 h, read-out: MIC
[17] = C. guilliermondii (12,204), clinical isolate, read-out: MFC
[18] = C. guilliermondii (12,204), clinical isolate, read-out: MIC
[19] = C. lusitaniae (2305), clinical isolate, read-out: MFC
[20] = C. lusitaniae (2305), clinical isolate, read-out: MIC
[21] = C. tropicalis (9841), clinical isolate, read-out: MFC
[22] = C. tropicalis (9841), clinical isolate, read-out: MIC
[23] = C. glabrata (10,912), clinical isolate, read-out: MFC
[24] = C. glabrata (10,912), clinical isolate, read-out: MIC
[25] = as stated in the text for several or all strains
[26] = remaining species/strains, those not named with ratio 1

Structure (SMILES) | MFC [3, 11] [µg/mL] | MIC [3, 12] [µg/mL] | MFC [4, 13] [µg/mL] | MIC [4, 14] [µg/mL] | MFC [5, 15] [µg/mL] | MIC [5, 16] [µg/mL] | MFC [6, 17] [µg/mL] | MIC [6, 18] [µg/mL] | MFC [7, 19] [µg/mL] | MIC [7, 20] [µg/mL] | MFC [8, 21] [µg/mL] | MIC [8, 22] [µg/mL] | MFC [9, 23] [µg/mL] | MIC [9, 24] [µg/mL] | also measured
O=c1[nH]cc(F)c(=O)[nH]1 [5-FU, 5-fluorouracil] | – | – | – | – | – | – | – | – | – | – | – | – | – | – | IC50 [1]: 56.4 ± 0.31 µg/mL (≈ 434 µM); IC50 [2]: 18.3 ± 0.56 µg/mL (≈ 141 µM)
C[C@@H]1[C@H](O)[C@@H](C)/C=C/C=C/C=C/C=C/C=C/C=C/C=C/[C@H](O[C@@H]2O[C@H](C)[C@@H](O)[C@H](N)[C@@H]2O)C[C@@H]2O[C@](O)(C[C@@H](O)C[C@@H](O)[C@H](O)CC[C@@H](O)C[C@@H](O)CC(=O)O[C@H]1C)C[C@H](O)[C@H]2C(=O)O [C1, amphotericin B, reference compound] | 256 (≈ 277 µM) | 128 (≈ 139 µM) | 2 (≈ 2.16 µM) | 1 (≈ 1.08 µM) | 1 (≈ 1.08 µM) | 0.5 (≈ 0.541 µM) | 128 (≈ 139 µM) | 64 (≈ 69.3 µM) | 128 (≈ 139 µM) | 64 (≈ 69.3 µM) | 64 (≈ 69.3 µM) | 32 (≈ 34.6 µM) | 256 (≈ 277 µM) | 128 (≈ 139 µM) | –
OC(Cn1cncn1)(Cn1cncn1)c1ccc(F)cc1F [C2, fluconazole, reference compound] | 4 (≈ 13.1 µM) | 2 (≈ 6.53 µM) | 1 (≈ 3.27 µM) | 0.5 (≈ 1.63 µM) | 2 (≈ 6.53 µM) | 1 (≈ 3.27 µM) | 1 (≈ 3.27 µM) | 0.5 (≈ 1.63 µM) | 4 (≈ 13.1 µM) | 2 (≈ 6.53 µM) | 1 (≈ 3.27 µM) | 0.5 (≈ 1.63 µM) | 64 (≈ 209 µM) | 32 (≈ 104 µM) | MFC/MIC ratio [10, 25]: 2
CCC(C)n1ncn(-c2ccc(N3CCN(c4ccc(OCC5COC(Cn6cncn6)(c6ccc(Cl)cc6Cl)O5)cc4)CC3)cc2)c1=O (stereo not shown) [C3, itraconazole, reference compound] | 8 (≈ 11.3 µM) | 4 (≈ 5.67 µM) | 1 (≈ 1.42 µM) | 0.5 (≈ 0.709 µM) | 1 (≈ 1.42 µM) | 1 (≈ 1.42 µM) | 4 (≈ 5.67 µM) | 2 (≈ 2.83 µM) | 8 (≈ 11.3 µM) | 4 (≈ 5.67 µM) | 1 (≈ 1.42 µM) | 0.5 (≈ 0.709 µM) | 16 (≈ 22.7 µM) | 8 (≈ 11.3 µM) | –
CC(C)=C1CC[C@@H](C)CC1=O [Compound 1, pulegone] | – | – | – | – | – | – | – | – | – | – | – | – | – | – | MFC [3]: 128 µg/mL (≈ 841 µM); MIC [3]: 64 µg/mL (≈ 420 µM); MFC ([4]; ATCC7978, 48 h): 128 µg/mL (≈ 841 µM); MIC ([4]; ATCC7978, 48 h): 128 µg/mL (≈ 841 µM); MFC ([5]; ATCC22019, 48 h): 256 µg/mL (≈ 1680 µM); MIC ([5]; ATCC22019, 48 h): 128 µg/mL (≈ 841 µM); MFC [6]: 128 µg/mL (≈ 841 µM); MIC [6]: 64 µg/mL (≈ 420 µM); MFC/MIC ratio [7]: 1; MFC [7]: 64 µg/mL (≈ 420 µM); MIC [7]: 64 µg/mL (≈ 420 µM); MFC [8]: 256 µg/mL (≈ 1680 µM); MIC [8]: 128 µg/mL (≈ 841 µM); MFC [9]: 128 µg/mL (≈ 841 µM); MIC [9]: 128 µg/mL (≈ 841 µM); MFC/MIC ratio [10, 26]: 2
Cc1ccc(C(C)C)c(O)c1 [Compound 2, thymol] | 32 (≈ 213 µM) | 32 (≈ 213 µM) | 64 (≈ 426 µM) | 64 (≈ 426 µM) | 64 (≈ 426 µM) | 32 (≈ 213 µM) | 64 (≈ 426 µM) | 32 (≈ 213 µM) | 64 (≈ 426 µM) | 32 (≈ 213 µM) | 128 (≈ 852 µM) | 64 (≈ 426 µM) | 64 (≈ 426 µM) | 64 (≈ 426 µM) | MFC/MIC ratio ([3]; C. albicans (10,935)): 1; MFC/MIC ratio ([4]; C. albicans (ATCC 7978)): 1; MFC/MIC ratio [7]: 1; MFC/MIC ratio ([9]; C. glabrata): 1; MIC [10]: 32 to 64 µg/mL (≈ 213 to 426 µM); MFC/MIC ratio [10, 26]: 2
CC1CCC(C(C)C)C(=O)C1 (stereo not shown) [Compound 3, isomenthone] | 128 (≈ 830 µM) | 128 (≈ 830 µM) | 128 (≈ 830 µM) | 128 (≈ 830 µM) | 128 (≈ 830 µM) | 128 (≈ 830 µM) | 128 (≈ 830 µM) | 128 (≈ 830 µM) | 64 (≈ 415 µM) | 64 (≈ 415 µM) | 128 (≈ 830 µM) | 64 (≈ 415 µM) | 128 (≈ 830 µM) | 128 (≈ 830 µM) | MIC [10]: 128 µg/mL (≈ 830 µM); MFC/MIC ratio [10, 25]: 1
